{"source": "paper PMC8715118", "about": "“Assessing potentiation of the (α4)3(β2)2 nicotinic acetylcholine receptor by the allosteric agonist CMPI” (The Journal of Biological Chemistry, 2021)", "key": {"(α4)3(β2)2 nAChR [1]": {"biological_target": "T1, (α4)3(β2)2 nAChR (Homo sapiens, UniProt P17787+P43681)", "T1 construct": "expressed in transfected cells; host or cells: Xenopus laevis oocytes injected with cRNA, 8:1 α4:β2", "T1 sequence (P43681 27-627)": "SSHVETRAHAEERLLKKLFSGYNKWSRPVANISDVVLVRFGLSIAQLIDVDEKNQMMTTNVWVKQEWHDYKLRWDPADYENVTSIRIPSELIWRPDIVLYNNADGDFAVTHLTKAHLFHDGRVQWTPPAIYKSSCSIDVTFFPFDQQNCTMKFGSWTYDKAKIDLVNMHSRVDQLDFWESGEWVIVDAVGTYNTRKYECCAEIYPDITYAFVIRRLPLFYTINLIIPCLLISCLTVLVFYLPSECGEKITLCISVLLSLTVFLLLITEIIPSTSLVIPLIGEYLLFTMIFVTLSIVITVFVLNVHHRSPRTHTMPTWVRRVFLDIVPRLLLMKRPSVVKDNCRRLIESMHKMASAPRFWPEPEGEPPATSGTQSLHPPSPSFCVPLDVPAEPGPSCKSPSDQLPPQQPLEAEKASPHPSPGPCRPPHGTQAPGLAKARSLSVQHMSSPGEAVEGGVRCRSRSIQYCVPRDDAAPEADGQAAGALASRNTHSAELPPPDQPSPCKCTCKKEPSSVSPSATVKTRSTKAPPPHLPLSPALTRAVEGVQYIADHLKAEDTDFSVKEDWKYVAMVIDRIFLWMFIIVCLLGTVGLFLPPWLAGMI", "T1 sequence (P17787 26-502)": "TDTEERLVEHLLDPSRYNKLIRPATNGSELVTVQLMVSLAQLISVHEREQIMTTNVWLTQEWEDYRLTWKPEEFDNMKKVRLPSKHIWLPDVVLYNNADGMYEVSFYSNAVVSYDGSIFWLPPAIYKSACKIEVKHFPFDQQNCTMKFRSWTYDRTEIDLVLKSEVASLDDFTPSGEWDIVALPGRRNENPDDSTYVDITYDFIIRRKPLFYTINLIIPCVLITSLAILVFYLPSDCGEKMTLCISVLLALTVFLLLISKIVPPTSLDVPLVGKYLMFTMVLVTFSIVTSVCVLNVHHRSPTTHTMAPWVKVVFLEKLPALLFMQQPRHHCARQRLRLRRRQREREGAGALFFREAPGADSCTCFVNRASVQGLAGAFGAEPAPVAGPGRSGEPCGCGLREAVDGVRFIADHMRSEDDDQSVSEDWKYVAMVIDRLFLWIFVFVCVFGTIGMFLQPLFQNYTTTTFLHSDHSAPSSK", "assay": "Two-electrode voltage-clamp whole-cell currents, Xenopus oocytes expressing WT (α4)3(β2)2 nAChR", "assay_type": "cell-based", "settings": "for current response produced by a saturating concentration (100 μM), % of current elicited by 1 mM ACh: 100 μM agonist; for current response at subsaturating concentration, % of the current response to 1 mM ACh: subsaturating (1 μM) agonist", "experimental": "Oocytes-positive female Xenopus laevis were purchased from NASCO, and all procedures were performed according to an animal use protocol approved by the Institutional Animals Care and Use Committee of The University of Texas Health Science Center at Tyler. Ovarian lobules were surgically harvested, treated with collagenase type 2, and Stage V and VI oocytes were visually selected and maintained at 18 °C in modified ND96-gentamicin buffer (96 mM NaCl, 2 mM KCl, 1.8 mM CaCl2, 1 mM MgCl2, 5 mM Hepes, and 50 μg/ml gentamicin, pH 7.6).\npSP64 Poly(A) plasmids with cDNA encoding for human α4 or β2 nAChR subunit were used to prepare cRNA transcripts suitable for oocyte expression. The plasmids were linearized with AseI (hα4) and PvuII (hβ2), then cRNA transcripts were prepared in vitro using mMESSAGE mMACHINE high yield-capped RNA transcription kits (Ambion, Thermo Fisher Scientific), purified on NucAway Spin column (Invitrogen, Thermo Fisher Scientific), and stored at −80 °C until used. Point mutations within the plasmid encoding the α4 nAChR subunit were introduced using QuikChange II Site-Directed Mutagenesis Kit (Agilent Technologies), as described previously ([28]). To generate amino acid substitutions (K64T, E66I, H116V, H116L, and H116A), two custom-designed complementary oligos containing the desired mutation were used (Integrated DNA Technologies). The forward primers were as the following with the codon for mutated amino acids are underlined and nucleotide(s) changes are bolded and italicized:\nThe oocytes were injected with 10 to 50 ng of a cRNA mix containing α4 (WT or mutant) and β2 RNAs at ratios of 8:1(α4:β) or 1:8 (α4:β2) to bias expression toward (α4)3(β2)2 or (α4)2(β2)3 nAChRs, respectively. The injection of oocytes with RNAs mixture containing four folds or higher α4 RNA than β2 RNA have been established to express receptor population that is made up of three α4 and two β2 subunits ([9], [12], [28], [43], [44], [45]).\n24 to 72 h after cRNA injection, Xenopus oocytes were placed in a custom-made recording chamber that is connected to an eight-channel automated perfusion system (Warner Instruments) and perfused with recording buffer (100 mM NaCl, 2 mM KCl, 1 mM CaCl2, 0.8 mM MgCl2, 1 mM EGTA, and 10 mM Hepes, pH 7.5). Unless otherwise specified in figure legends, each recording run included several drug applications (10 s of an agonist with or without CMPI or NS9283) separated by 3 to 4 min buffer wash intervals. Between recording runs, the oocytes were washed with recording buffer for at last 5 min. The oocytes were voltage-clamped at −50 mV using Oocyte Clamp OC-725B (Warner Instruments). The currents were digitized using Digidata 1550A (Axon Instruments, Molecular Devices), and the peak currents were quantified using pCLAMP 10 (Axon Instruments), then normalized and analyzed using Excel 2010 (Microsoft) and SigmaPlot 11.0 (Systat Software). For NS9283 and CMPI potentiation of agonist-induced responses, the peak currents were normalized to current elicited by agonist alone applied within the same recording run. For the effect of coapplication of 1 μM NS9283 or CMPI on agonist concentration-response curve, the peak currents were normalized to current elicited by saturating concentration of agonist applied within the same recording run. […] I0 = 100 for NS9283 and CMPI potentiation of agonist-induced responses and I0 = 0 for agonist concentration-response experiments. The best-fit values for Imax and EC50 ± SD are presented."}, "(α4)3(β2)2 nAChR [2]": {"biological_target": "T1, (α4)3(β2)2 nAChR", "assay": "Mechanistic (Monod-Wyman-Changeux two-state model) analysis of current responses, WT (α4)3(β2)2 nAChR", "assay_type": "cell-based", "settings": "WT", "source_text": "To gain mechanistic insight into receptor activation in the presence of CMPI, we analyzed the currents in the framework of a cyclic two-state (resting and active) allosteric activation model ([31], [32], [33]). In this model, channel opening is mediated by stabilization of the active state by an agonist that, by definition, has higher affinity to the active than resting state.\nWe commenced by converting the raw amplitudes of current responses to units of probability of being in the active state (PA units).\nFurther analysis of electrophysiological data was conducted in the framework of the two-state concerted transition model, adapted from the MWC cyclic model originally used to describe enzyme function ([31], [32], [33]). The raw peak amplitudes of current responses were converted to units of probability of being in the active state (PA).\nThe numbers of α4:β2 and α4:α4 binding sites (Nα4:β2 and Nα4:α4) were constrained to 2 and 1, respectively.\nThe concentration-response curve for TC-2559 was fitted to the following equation:(3) PA=1/1+L[1+[TC-2559]/KR,TC-2559,α4:β2/1+[TC-2559]/(KR,TC-2559,α4:β2cTC-2559,α4:β2)]^Nα4:β2\nThe concentration-response data were analyzed using Equation 3, with the value of L modified to reflect receptor activation by TC-2559, and the affinity and efficacy terms in the equation reflecting the values for CMPI. The number of binding sites for CMPI in Equation 3 was constrained to 1.\nCurve fitting was done using Origin 2020 (OriginLab Corp). The results are reported as best-fit parameter ±SD of the fit. All data are included in the analysis."}, "nAChR": {"test_system": "nAChR", "set-up": "method as in PMID 1378342", "settings": "nonselective, allosteric antagonist; cited from earlier work"}}, "note": "Read-outs that look alike come from different tables or passages of the source.", "data": [{"smiles": "O=c1cccc2n1C[C@@H]1CNC[C@H]2C1", "note": "[cytisine]", "values": [{"measurement": "current response produced by a saturating concentration (100 μM), % of current elicited by 1 mM ACh", "setting": "(α4)3(β2)2 nAChR [1]", "result": "10 ± 1", "unit": "%"}, {"measurement": "I100 μM cytisine + 1 μM CMPI", "setting": "(α4)3(β2)2 nAChR [1]; % of 100 μM cytisine alone", "result": "91 ± 5", "unit": "%"}, {"measurement": "I100 μM cytisine + 1 μM NS9283", "setting": "(α4)3(β2)2 nAChR [1]; % of 100 μM cytisine alone, data not shown", "result": "113 ± 9", "unit": "%"}, {"measurement": "EC50", "setting": "(α4)3(β2)2 nAChR [1]; agonist alone, read-out: agonist EC50", "result": "11 ± 6", "unit": "µM"}, {"measurement": "current response at subsaturating concentration, % of the current response to 1 mM ACh", "setting": "(α4)3(β2)2 nAChR [1]", "result": "2.3 ± 0.4", "unit": "%"}, {"measurement": "Kd", "setting": "(α4)3(β2)2 nAChR [2]; KR, equilibrium dissociation constant in the resting receptor, α4:α4 site", "result": "8.3 ± 0.5", "unit": "µM"}, {"measurement": "Kd", "setting": "(α4)3(β2)2 nAChR [2]; read-out: KR, equilibrium dissociation constant in the resting receptor, α4:β2 site", "result": "0.63 ± 1.24", "unit": "µM"}, {"measurement": "c, ratio of equilibrium dissociation constants active/resting receptor", "setting": "(α4)3(β2)2 nAChR [2]; α4:α4 site", "result": "0.155 ± 0.104"}, {"measurement": "c, ratio of equilibrium dissociation constants active/resting receptor", "setting": "(α4)3(β2)2 nAChR [2]; α4:β2 site", "result": "0.875 ± 0.029"}]}, {"smiles": "C=CC(C)(C)c1[nH]c2cc(Br)ccc2c1CCNC", "note": "[dFBr, desformylflustrabromine]", "values": [{"measurement": "peak response to 1 mM ACh, % of control", "setting": "(α4)3(β2)2 nAChR [1]; 1 mM ACh + 3 μM dFBr", "result": "278 ± 36", "unit": "%"}]}, {"smiles": "CNC1(C)C2CCC(C2)C1(C)C", "note": "(centres unmarked) [mecamylamine]", "values": [{"measurement": "outward current, mean amplitude, % of the absolute response to 1 mM ACh", "setting": "(α4)3(β2)2 nAChR [1]; 100 μM mecamylamine, holding current", "result": "2.1 ± 0.5", "unit": "%"}, {"measurement": "IC50s", "setting": "nAChR", "result": "submicromolar range"}]}, {"smiles": "CN1CCC[C@H]1c1cccnc1", "note": "[nicotine]", "values": [{"measurement": "current response produced by a saturating concentration (100 μM), % of current elicited by 1 mM ACh", "setting": "(α4)3(β2)2 nAChR [1]", "result": "73 ± 3", "unit": "%"}, {"measurement": "current response at subsaturating concentration, % of the current response to 1 mM ACh", "setting": "(α4)3(β2)2 nAChR [1]", "result": "2.9 ± 0.4", "unit": "%"}]}]}
